In patent publication US20250250269A1, “HETEROCYCLIC GLP-1 AGONISTS” (Gasherbrum Bio, Inc., priority 2022, published 2025):

Biological target: T1, GLP-1 Receptor (Homo sapiens, UniProt P43220)
T1 construct: host or cells: HEK293/CRE-Luc (HEK293/GLP1R/CRE-LUC)
Assay: GLP-1R agonist cAMP stimulation assay (HEK293/GLP1R/CRE-LUC cells, Cisbio cAMP dynamic 2 kit)
Assay type: cell-based
Settings: HEK293/CRE-Luc cells stably expressing the GLP-1 Receptor, 30 min at 37° C.
Summary of the method: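 HEK293 CRE-Luc cells stably expressing GLP-1R (1000 cells/well) treated with compounds in ½-log dilution for 30 min at 37 °C in DPBS with 0.5 mM IBMX and 0.1% BSA. cAMP quantified by HTRF (cAMP-d2/anti-cAMP cryptate, 1 h, room temperature), fluorescence read at 665 and 615 nm.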

T1 sequence (P43220 24-463, species assumed): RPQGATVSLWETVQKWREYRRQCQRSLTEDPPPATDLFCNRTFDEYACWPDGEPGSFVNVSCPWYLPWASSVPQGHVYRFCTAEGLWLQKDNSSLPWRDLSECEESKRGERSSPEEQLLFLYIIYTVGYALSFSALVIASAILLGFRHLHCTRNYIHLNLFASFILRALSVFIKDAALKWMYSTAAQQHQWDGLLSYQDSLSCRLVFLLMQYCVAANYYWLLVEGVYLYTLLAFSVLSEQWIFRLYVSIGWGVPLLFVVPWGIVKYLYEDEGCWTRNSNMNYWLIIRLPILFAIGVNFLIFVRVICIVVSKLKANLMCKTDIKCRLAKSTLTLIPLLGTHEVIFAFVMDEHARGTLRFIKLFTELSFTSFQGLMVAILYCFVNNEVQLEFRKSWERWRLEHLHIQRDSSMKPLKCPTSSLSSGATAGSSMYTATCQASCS

EC50 [nM]	SMILES
< 1	Fc1cc(Cl)cc(F)c1COc1cccc(C2CCN(Cc3nc4cc(-c5nnc(C(F)(F)F)[nH]5)ncc4n3C[C@@H]3CCO3)CC2)n1 [Compound 6, (S)-2-((4-(6-((4-chloro-2,6-difluorobenzyl)oxy)pyridin-2-yl)piperidin-1-yl)methyl)-3-(oxetan-2-ylmethyl)-6-(5-(trifluoromethyl)-4H-1,2,4-triazol-3-yl)-3H-imidazo[4,5-c]pyridine]
< 1	Fc1cc(Cl)ccc1COc1nc(N2CCN(Cc3nc4cc(-c5nnc(C(F)(F)F)[nH]5)ncc4n3C[C@@H]3CCO3)CC2)c(F)cc1F [Compound 48, 1-{6-[(4-chloro-2-fluorophenyl)methoxy]-3,5-difluoropyridin-2-yl}-4-[(3-{[(2S)-oxetan-2-yl]methyl}-6-[5-(trifluoromethyl)-4H-1,2,4-triazol-3-yl]-3H-imidazo[4,5-c]pyridin-2-yl)methyl]piperazine]
